Assay results reported in US10179785B2, “Imidazotriazinone or imidazopyrazinone derivatives, and use thereof” (ST PHARM CO., LTD., priority 2014, dated 2019).

Molecular target: T1, tankyrase 1 (Homo sapiens, UniProt O95271)
T1 construct: purchased Trevigen 4700-096-K
T1 sequence (O95271 1-1327): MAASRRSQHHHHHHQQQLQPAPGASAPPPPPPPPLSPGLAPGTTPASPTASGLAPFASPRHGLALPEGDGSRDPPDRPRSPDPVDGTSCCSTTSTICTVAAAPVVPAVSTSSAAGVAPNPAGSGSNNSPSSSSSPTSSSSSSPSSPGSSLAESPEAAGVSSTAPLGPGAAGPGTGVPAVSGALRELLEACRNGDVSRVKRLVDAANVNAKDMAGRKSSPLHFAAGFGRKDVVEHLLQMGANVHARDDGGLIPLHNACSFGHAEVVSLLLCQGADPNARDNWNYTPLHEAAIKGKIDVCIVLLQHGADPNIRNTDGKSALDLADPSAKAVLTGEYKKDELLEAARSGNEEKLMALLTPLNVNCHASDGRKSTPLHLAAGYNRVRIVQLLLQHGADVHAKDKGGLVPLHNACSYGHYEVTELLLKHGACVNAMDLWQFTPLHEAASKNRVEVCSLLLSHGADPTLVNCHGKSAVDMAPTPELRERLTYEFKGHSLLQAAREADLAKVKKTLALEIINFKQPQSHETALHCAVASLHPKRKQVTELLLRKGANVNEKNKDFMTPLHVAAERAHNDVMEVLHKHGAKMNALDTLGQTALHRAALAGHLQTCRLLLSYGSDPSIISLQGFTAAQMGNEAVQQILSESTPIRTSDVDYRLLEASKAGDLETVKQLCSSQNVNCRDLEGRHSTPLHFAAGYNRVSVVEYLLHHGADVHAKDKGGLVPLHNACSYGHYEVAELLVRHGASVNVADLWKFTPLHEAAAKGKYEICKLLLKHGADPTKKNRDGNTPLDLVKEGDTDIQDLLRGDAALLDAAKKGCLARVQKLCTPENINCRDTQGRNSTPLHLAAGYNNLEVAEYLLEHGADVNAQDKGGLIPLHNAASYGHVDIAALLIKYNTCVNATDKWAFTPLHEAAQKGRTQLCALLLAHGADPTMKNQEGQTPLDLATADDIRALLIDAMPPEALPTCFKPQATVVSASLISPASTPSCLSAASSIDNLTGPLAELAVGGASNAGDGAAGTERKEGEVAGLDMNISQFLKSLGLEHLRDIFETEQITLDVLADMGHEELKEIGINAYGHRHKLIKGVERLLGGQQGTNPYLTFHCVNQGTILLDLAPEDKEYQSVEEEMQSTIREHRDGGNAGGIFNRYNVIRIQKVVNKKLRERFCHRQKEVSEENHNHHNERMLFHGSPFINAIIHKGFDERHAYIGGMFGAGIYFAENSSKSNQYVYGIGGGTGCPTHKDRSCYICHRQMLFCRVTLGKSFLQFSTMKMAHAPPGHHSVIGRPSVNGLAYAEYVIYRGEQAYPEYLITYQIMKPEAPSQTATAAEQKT
Test: Analysis of activity of tankyrase 1 (Trevigen kit, ELISA absorbance at 450 nm)
Type: biochemical
Conditions: Trevigen kit Cat. No. 4700-096-K; reaction at rt for 30 min; read-out: TNKS1 (IC50)
Description: Activities of novel compounds synthesized according to Examples 1 to 48 against tankyrase 1 were analyzed using a Trevigen kit (Cat. No. 4700-096-K). Poly PAR histone protein-coated 96-well plate, anti-PAR monoclonal antibody and goat anti-mouse IgG-HRP were used for measurement of absorbance by ELISA method. Specifically, 20× I-PAR assay buffer was diluted to 1× by adding water, and 50 μL of the diluted buffer was added to each well of the 96-well plate followed by reacting at rt for 30 min. Then, the supernatant was completely removed from each well and 10 μL of 1× I-PAR assay buffer and 15 μL of assay substrate were added to each well along with 1 μL of a 50× solution of inhibitors to be tested, which were the compounds obtained in the Examples 1 to 48. 10 m Units/μL of tankyrase 1 enzyme was diluted 50-fold with 1× I-PAR assay buffer and 25 μL of the diluted enzyme was added to each well and reacted while stirring at rt for 30 min. One without any compound of the present invention was used as a positive control and another containing 1× I-PAR assay buffer with the same volume instead of tankyrase 1 enzyme was used as a negative control. Upon completion of the reaction, 200 μL of PBSX, which was prepared by adding 0.1% triton X-100 to PBS, was added and removed and this washing process was repeated twice. Washing was repeated twice more using PBS in the same manner. 5× antibody diluent was diluted with distilled water to 1× concentration, 50 μL of the diluted goat anti-mouse IgG-HRP to 1/2000 was added to each well and reacted while stirring at rt for 30 min. Washes were carried out twice using PBSX and PBS, respectively. After addition of 50 μL of TACS-sapphire to each well of the plate, the plate was blocked from light to react for 10 min to 15 min and the color of the reaction solution turned blue. To stop the reaction, 50 μL of 0.2N HCl was added to turn the solution yellow. Finally, the absorbance of the resulting solution was measured at 450 nm.

Row | IC50 [nM] | Structure (SMILES)
1 | 180 | Cc1ncc2c(=O)[nH]c(N3CCN(c4c(F)cc(OCCN5CCN(C)CC5=O)cc4F)CC3)nn12 [compound 33, 2-(4-(2,6-Difluoro-4-(2-(4-methyl-2-oxopiperazin-1-yl)ethoxy)phenyl)piperazin-1-yl)-7-methylimidazo[1,5-f][1,2,4]triazin-4(3H)-one]
2 | 60.5 | Cc1ncc2c(=O)[nH]c(N3CCN(c4c(F)cc(OCCN5CCC(N)CC5)cc4F)CC3)nn12 [compound 34, 2-(4-(4-(2-(4-Aminopiperidin-1-yl)ethoxy)-2,6-difluorophenyl)piperazin-1-yl)-7-methylimidazo[1,5-f][1,2,4]triazin-4(3H)-one]
3 | 102 | Cc1ncc2c(=O)[nH]c(N3CCN(c4c(F)cc(OCCN5CCC(O)C5)cc4F)CC3)nn12 (stereo not shown) [compound 35, 2-(4-(2,6-Difluoro-4-(2-(3-hydroxypyrrolidin-1-yl)ethoxy)phenyl)piperazin-1-yl)-7-methylimidazo[1,5-f][1,2,4]triazin-4(3H)-one]
4 | 65.2 | Cc1ncc2c(=O)[nH]c(N3CCN(c4c(F)cc(OCCN5CCC(O)CC5)cc4F)CC3)nn12 [compound 36, 2-(4-(2,6-Difluoro-4-(2-(4-hydroxypiperidin-1-yl)ethoxy)phenyl)piperazin-1-yl)-7-methylimidazo[1,5-f][1,2,4]triazin-4(3H)-one]
